Patent publication US12551478B2, “Quinoline derivative having indoleamine-2,3-dioxygenase inhibitory activity” (SHENZHEN CHIPSCREEN BIOSCIENCES CO., LTD., priority 2018, dated 2026)
pEC50: −log10 of the molar value. Values joined by “and” are separate entries in the source; they are usually repeats but may differ in a detail not shown here. Equal entries are not always repeated.

How the values were obtained:
[1] = system: CT-26 tumor; assay: Efficacy experiment on Balb/c mouse CT-26 tumor model; type: in vivo; details: for average tumor weight: Example 93, FIG. 6: tumors stripped after last administration on 17th day, vehicle group 2.7 g; for Relative tumor inhibition rate (%): Example 93: Chidamide 25 mg/kg, Example 3 20 mg/kg, intragastric once per day, 17 days, tumor volume vs vehicle control
Protocol: CT-26 cells were subjected to multiplication culture and kept in a logarithmic growth state. After the number of cells met the requirement, the cells were digested with trypsin and collected, washed sufficiently with a large amount of PBS twice to remove trypsin and serum components, centrifuged at room temperature and 800 rpm for 10 minutes, and the supernatant was discarded. The cells were resuspended in FBS-free DMEM medium and adjusted to reach a cell concentration of 3×10^7/mL.
Under aseptic condition, the cell suspension was injected into subcutaneous of back of […] at a dose of 100 μL/needle, one injection per Balb/c mouse. During the injection, 1 mL disposable medical syringe was used to ensure that the position and direction for inserting needle to each mouse was basically the same.
Eight days after cell inoculation, the tumor grew to an average volume of about 100 mm^3. The tumor-bearing mice were randomly divided into four groups (9 mice in each group), namely the vehicle control group, the chidamide group (25 mg/kg, intragastric administration, once per day), Example 3 group (20 mg/kg, intragastric administration, once per day), and the combination of Chidamide and Example 3 group, and then the mice were raised in cages after labeling, the mice was administered according to groups and observed for tumor formation every day. The body weight of each mouse was weighted before administration, and the dose was calculated according to per kilogram of body weight, that was, 10 μL of CMC-Na solution per gram of body weight for the vehicle control group, 10 μL of 2.5 mg/mL Chidamide-CMC-Na suspension per gram of body weight for the chidamide group (25 mg/kg), 10 μL of 2 mg/mL the compound of Example 3-CMC-Na suspension per gram of body weight for the Example 3 group (20 mg/kg), and 10 μL of CMC-Na suspension containing 2.5 mg/ml chidamide and 2 mg/ml the compound of Example 3 per gram of body weight for the combination group were administered intragastrically. The longest diameter of tumor (length) and the widest diameter (width) perpendicular thereto were measured by vernier caliper every 2 days, and the tumor volume was calculated by the formula TS=length×(width)^2/2 and recorded. Each mouse was intragastrically administered once per day at regular time; after the last administration on the 17th day, the mice were sacrificed and the tumors of tumor-bearing mice were stripped and weighed with […].
The relative tumor inhibition rate of each administration group was calculated according to the following formula: Relative tumor inhibition rate=(average tumor volume of the vehicle control group−average tumor volume of the administration group)/average tumor volume of the vehicle control group×100%

[2] = system: CT-26 tumor; assay: as above; type: in vivo; details: method similar to Example 93
[3] = target: T1, IDO in HeLa cell (Homo sapiens, UniProt P14902); assay: Inhibition of IDO enzyme activity in HeLa cells by Chidamide in combination with IDO inhibitor; type: cell-based; details: IFN-γ, 48 hours
T1 construct: 50 ng/ml cytokine human IFN-γ and drugs with different concentrations; endogenous in cells; host or cells: HeLa cells stimulated with human IFN-γ
Protocol: HeLa cells were digested by trypsin, collected and counted, then inoculated in a 96-well cell culture plate at 2×10^4 cells per well and cultured at 5% CO2 and 37° C. After the cells were inoculated overnight, the medium was replaced with 200 μM L-tryptophan phenol red-free DMEM medium, and 50 ng/ml cytokine human IFN-γ and drugs with different concentrations (administered according to the group and final concentration shown in FIG. 1) were added simultaneously, the vehicle control (DMSO) and cytokine-free and L-tryptophan negative control wells were set at the same time, and triplicate wells were set. After 48 hours of drug treatment, 200 μL of the supernatant from culture well was pipetted out, added with 40 μL of pre-prepared 30% (w/v) trichloroacetic acid solution, reacted at 65° C. for 20 minutes, and then centrifuged at 12000 rpm for 15 minutes. 100 μL of the supernatant was pipetted out and added into a 96-well flat bottom plate, then equal volume of 2% p-dimethylaminobenzaldehyde in glacial acetic acid was added and mixed well, and stood at room temperature for 10 minutes. The absorbance value of each well at wavelength of 492 nm was read with microplate reader (ELX800NB). After subtracting the cell-free medium OD492-BLK as a blank control from the reading of each well, the OD492-T of each dosing well with subtraction of the detection background and the […] of drug-free positive control well were obtained.
The relative enzyme activity inhibition rate against IDO of each dosing well cell was calculated according to the following formula: enzyme activity inhibition rate against IDO=(OD492−T0−OD492−T)/OD492−T0×100%

[4] = target: T2, human indoleamine 2,3-dioxygenase 1 (hIDO1) (Homo sapiens, UniProt P14902); assay: Inhibitory activity test at cellular level: IFN-γ-induced HeLa cells, kynurenine colour reaction; type: cell-based; details: 48 hours; for inhibition at 0.1 µM: 50 ng/ml human IFN-γ, 200 μM L-tryptophan, each test compound 100 nM, read-out: hIDO1-cell base inhibition rate (%)
T2 construct: up-regulate the expression of endogenous IDO1 under the induction of human IFN-γ; endogenous in cells; host or cells: HeLa cells stimulated with human IFN-γ
From the text: The subject of this assay was to comprehensively evaluate different compounds on their enzymatic inhibitory activity in vitro and on cell models against human indoleamine 2,3-dioxygenase 1 (hIDO1).
In the present application, the inventors used Hela cells expressing IDO1 induced by IFN-γ as a model, to test the IDO1 inhibitory activity of the compounds at the cellular level.
HeLa cells are human cervical cancer cell lines, which can up-regulate the expression of endogenous IDO1 under the induction of human IFN-γ. By adding the substrate L-tryptophan to cell culture medium, the enzymatic catalysis product kynurenine in cell supernatant was detected. In this experiment, the cultured Hela cells were used and co-incubated with different concentrations of test compounds under stimulation of human IFN-γ for a specified period of time, and the color reaction method of enzyme product and p-dimethylaminobenzaldehyde was used to detect the effect on IDO enzyme activity of cells treated by the test compounds.
(1) Hela cells were inoculated into 96-well culture plates at an appropriate concentration (about 20,000 cells/well). […] The cells were continuously cultured for 48 hours before detection.
(2) 200 μL of the supernatant in the culture well was pipetted out, added with 40 μL of the pre-prepared 30% (w/v) trichloroacetic acid solution, and reacted at 65° C. for 20 minutes, and then centrifuged at 12000 rpm for 15 minutes.
(3) 100 μL of the supernatant after centrifugation was pipetted out, added into a 96-well flat bottom plate, then added with an equal volume of 2% p-dimethylaminobenzaldehyde in glacial acetic acid and mixed well, and stood at room temperature for 10 minutes.
(4) microplate reader (ELX800NB) was used to detect the absorbance value of each well, and the detection wavelength was 492 nm.
In addition, after the cell enzyme activity inhibition rates of test compounds with different concentration gradients were separately calculated, their cell enzyme activity half inhibition concentrations (EC50) were calculated by using EC50 calculator.
According to the above-mentioned experimental method, the compounds of the present application were subjected to IDO1 enzymatic evaluation at cytological level (the concentration of each test compound was all 100 nM).
According to the above-mentioned experimental method, the compound of the present application was subjected to hIDO1-cell base EC50 detection.

[5] = target: T3, hERG potassium channel (Homo sapiens, UniProt Q12809); assay: hERG inhibitory activity assay (patch clamp method), HEK293 cells stably expressing hERG; type: cell-based; details: whole-cell patch clamp, HEK293, 0.3-30 μM, room temperature; read-out: hERG inhibition EC50 value
T3 construct: expressed in transfected cells
From the text: Non-cardiac drugs may cause the prolongation of myocardial action potential duration by inhibiting the hERG (IKr) channel, increasing the possibility of life-threatening torsade de pointes (TdP) ventricular arrhythmia. In this experiment, HEK293 cell line without endogenous IKr current was used as host cell (this cell line was widely used in the detection of hERG) to evaluate the cardiotoxicity of Example 85 in patent CN108203438A and Example 87 of the present application.
(1) HEK293 cell line stably expressing hERG potassium channel was cultured in DMEM medium containing 10% fetal bovine serum and 0.8 mg/mL G418 under the condition of 37° C. and 5% CO2. […]
A capillary glass tube was drawn into a recording electrode with a microelectrode puller. […] Then, slow capacitance compensation was performed, and the membrane capacitance and series resistance were recorded. […]
When the hERG current of the whole-cell recording was stabilized, the drug was administered. […] The current detected for each cell in the compound-free extracellular fluid was used as its own control group. […]
[formula] and then the inhibition rate corresponding to each concentration was calculated
[formula] For each concentration, mean number and standard error were calculated, and the following equation was used to calculate the half inhibitory concentration of each compound: […]

[6] = Example 96, Table 10: chidamide and Example 87 alone and in combination
[7] = Example 89, Table 3: chidamide and Example 3 alone and in combination, concentrations per FIG. 1
[8] = Example 92, Table 6: chidamide and Example 87 alone and in combination, FIG. 4

T1 sequence (P14902 whole entry): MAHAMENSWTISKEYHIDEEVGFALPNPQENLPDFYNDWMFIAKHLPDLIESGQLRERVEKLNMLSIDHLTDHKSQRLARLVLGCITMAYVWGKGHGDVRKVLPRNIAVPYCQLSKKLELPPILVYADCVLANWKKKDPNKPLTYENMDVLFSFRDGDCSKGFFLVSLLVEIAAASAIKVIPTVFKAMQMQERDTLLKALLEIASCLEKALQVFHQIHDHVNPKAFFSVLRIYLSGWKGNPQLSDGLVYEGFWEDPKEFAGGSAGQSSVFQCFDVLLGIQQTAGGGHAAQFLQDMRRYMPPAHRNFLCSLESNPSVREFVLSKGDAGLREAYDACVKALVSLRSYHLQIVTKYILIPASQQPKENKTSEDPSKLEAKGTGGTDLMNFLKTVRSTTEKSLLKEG
T2 sequence (P14902 whole entry): as above
T3 sequence (Q12809 whole entry): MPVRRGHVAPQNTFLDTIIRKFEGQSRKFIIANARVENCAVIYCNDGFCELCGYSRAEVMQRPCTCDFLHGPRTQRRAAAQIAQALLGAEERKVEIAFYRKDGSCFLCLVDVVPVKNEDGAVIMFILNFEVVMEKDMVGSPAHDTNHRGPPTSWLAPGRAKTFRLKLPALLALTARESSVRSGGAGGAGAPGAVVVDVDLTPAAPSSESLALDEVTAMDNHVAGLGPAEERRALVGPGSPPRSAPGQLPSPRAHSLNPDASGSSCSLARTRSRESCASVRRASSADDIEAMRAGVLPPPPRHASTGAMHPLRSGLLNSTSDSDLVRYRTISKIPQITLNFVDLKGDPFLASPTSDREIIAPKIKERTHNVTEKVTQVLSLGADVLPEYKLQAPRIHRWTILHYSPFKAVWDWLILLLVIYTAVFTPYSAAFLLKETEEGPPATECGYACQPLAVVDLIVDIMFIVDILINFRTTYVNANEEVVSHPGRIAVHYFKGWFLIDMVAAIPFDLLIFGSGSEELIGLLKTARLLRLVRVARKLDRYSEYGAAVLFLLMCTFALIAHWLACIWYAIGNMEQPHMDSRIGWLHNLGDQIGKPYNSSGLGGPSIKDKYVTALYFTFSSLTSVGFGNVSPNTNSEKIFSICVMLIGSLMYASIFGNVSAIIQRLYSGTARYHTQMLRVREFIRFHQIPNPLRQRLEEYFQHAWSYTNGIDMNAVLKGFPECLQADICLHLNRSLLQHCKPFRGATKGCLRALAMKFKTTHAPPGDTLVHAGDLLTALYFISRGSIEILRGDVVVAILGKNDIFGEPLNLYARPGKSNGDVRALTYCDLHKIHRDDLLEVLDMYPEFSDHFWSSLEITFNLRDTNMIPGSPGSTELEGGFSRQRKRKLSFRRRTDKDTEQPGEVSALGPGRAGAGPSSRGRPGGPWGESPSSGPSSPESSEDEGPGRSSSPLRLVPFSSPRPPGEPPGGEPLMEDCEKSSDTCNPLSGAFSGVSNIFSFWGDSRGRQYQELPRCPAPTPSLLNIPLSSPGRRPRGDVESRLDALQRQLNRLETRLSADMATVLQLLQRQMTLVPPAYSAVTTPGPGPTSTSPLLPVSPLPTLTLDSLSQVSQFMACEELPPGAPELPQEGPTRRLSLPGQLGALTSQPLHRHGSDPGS

| Compound | average tumor weight [1] [g] | Relative tumor inhibition rate (%) [1] | Relative tumor inhibition rate (%) ([2]; Example 94, Table 8: chidamide and Example 20 alone and in combination) | Relative tumor inhibition rate (%) ([2]; Example 95, Table 9: chidamide and Example 72 alone and in combination) | Relative tumor inhibition rate (%) [2, 6] [%] | Average inhibition rate (%) against IDO [3, 7] [%] | Average inhibition rate (%) against IDO ([3]; Example 90, Table 4: chidamide and Example 20 alone and in combination, FIG. 2) [%] | Average inhibition rate (%) against IDO ([3]; Example 91, Table 5: chidamide and Example 72 alone and in combination, FIG. 3) [%] | Average inhibition rate (%) against IDO [3, 8] [%] | inhibition at 0.1 µM [4] [%] | pEC50 ([4]; human IFN-γ, read-out: hIDO1-cell base EC50) | pEC50 [5] |
| --- | --- | --- | --- | --- | --- | --- | --- | --- | --- | --- | --- | --- |
| Nc1cc(F)ccc1NC(=O)c1ccc(CNC(=O)/C=C/c2cccnc2)cc1 [Chidamide, reference compound] | 1.6 | 33% and 33.6% | 30 | 25.4 | 55 | 24 | 22 | 23 | 23 |  |  |  |
| O=C(Nc1ccc(Cl)cc1)N1CC2(CC(Oc3ccnc4ccc(F)cc34)C2)C1 [Example 3, N-(4-chlorophenyl)-6-((6-fluoroquinolin-4-yl)oxy)-2-aza-spiro[3.3]heptan-2-carboxamide] | 2.3 | 20% and 20.1% |  |  |  | 31 |  |  |  | 90 | 7.85 |  |
| O=C(CNc1ccc2c(c1)OCO2)N1CCC(C(O)CC2c3c(F)cccc3-c3cncn32)CC1 (stereo not drawn) [Example 87, 2-(benzo[d][1,3]dioxol-5-yl-amino)-1-(4-(2-(6-fluoro-5H-imidazo[5,1-a)isoindol-5-yl)-1-hydroxyethyl)piperidin-1-yl)ethyl-1-one] |  |  |  |  | 45 |  |  |  | 20 | 23 |  | 5.34 |
